Laboratory results: patent publication US11447493B2 (Kinnate Biopharma Inc., priority 2018, dated 2022)
pIC50: −log10 of the molar value.

Experiments:
Test in all cases: Radiometric protein kinase assay (33PanQinase), Assay Condition A (thiol containing)
Format in all cases: biochemical
[1] = target: CDK12 wt/CycK (Homo sapiens (Human), UniProt Q9NYV4); conditions: thiol containing (1.2 mM DTT), ATP 0.3 μM
Protocol: (§1) The IC50 profile of test compounds was determined using three protein kinases.
(§2) The compounds were provided as pre-weighed powders in vials. The compounds were dissolved to 1×10^−02M by adding DMSO. 100 μl of each of the resulting stock solutions were transferred into column 2 of four 96 well “master plates”.
(§3) Prior to testing, the 1×10^−02M stock solutions in column 2 of the master plates were subjected to a serial, semi-logarithmic dilution using 100% DMSO as a solvent. […] Column 1 and 7 were filled with 100% DMSO as controls. Subsequently, 2×10 μl from each well of the serial diluted copy plates were aliquoted with a 96 channel pipettor into two identical sets of “compound dilution plates”.
(§4) In the process, 90 μl H2O were added to each well of a set of compound dilution plates. To minimize potential precipitation, the H2O was added to each plate only a few minutes before the transfer of the compound solutions into the assay plates. Each plate was shaken thoroughly, resulting in a “compound dilution plate/10% DMSO”.
(§5) For the assays, 5 μl solution from each well of the compound dilution plates/10% DMSO were transferred into the assay plates. The final volume of the assay was 50 μl. All compounds were tested at 10 final assay concentrations in the range from 1×10^−04M to 3×10^−09M, in singlicate. The final DMSO concentration in the reaction cocktails was 1% in all cases.
(§6) All protein kinases were expressed in Sf9 insect cells or in E. coli as recombinant GST-fusion proteins or His-tagged proteins, either as full-length or enzymatically active fragments. All kinases were produced from human cDNAs and purified by either GSH-affinity chromatography or immobilized metal. Affinity tags were removed from a number of kinases during purification. The purity of the protein kinases was examined by SDS-PAGE/Coomassie staining, the identity was checked by mass spectroscopy.
(§7) A radiometric protein kinase assay (^33PanQinase® Activity Assay) was used for measuring the kinase activity of the three protein kinases. All kinase assays were performed in 96-well FlashPlates™ from PerkinElmer (Boston, Mass., USA) in a 50 μl reaction volume. The reaction cocktail was pipetted in four steps in the following order: • 20 μl of assay buffer (standard buffer) • 5 μl of ATP solution (in H2O) • 5 μl of test compound (in 10% DMSO) • 20 μl enzyme/substrate mix
(§8) The reaction cocktails were incubated at 30° C. for 60 minutes. The reaction was stopped with 50 μl of 2% (v/v) H3PO4, plates were aspirated and washed two times with 200 μl 0.9% (w/v) NaCl. Incorporation of ^33Pi was determined with a microplate scintillation counter (Microbeta, Wallac). All assays were performed with a BeckmanCoulter/SAGIAN™ Core System.
(§9) The median value of the counts in column 1 (n=8) of each assay plate was defined as “low control”. This value reflects unspecific binding of radioactivity to the plate in the absence of a protein kinase but in the presence of the substrate. The median value of the counts in column 7 of each assay plate (n=8) was taken as the “high control”, i.e. full activity in the absence of any inhibitor. The difference between high and low control was taken as 100% activity.
(§10) As part of the data evaluation the low control value from a particular plate was subtracted from the high control value as well as from all 80 “compound values” of the corresponding plate. The residual activity (in %) for each well of a particular plate was calculated by using the following formula: Res. Activity (%)=100×[(cpm of compound−low control)/(high control−low control)]
(§11) The residual activities for each concentration and the compound IC50 values were calculated using Quattro Workflow V3.1.1 (Quattro Research GmbH, Munich, Germany). […] The fitting method used was a least-squares fit.

[2] = target: CDK2/CycA2 (Homo sapiens (Human), UniProt P24941); conditions: thiol containing (1.2 mM DTT), ATP 0.3 μM
Protocol: as §1, §2, §3, §4, §5, §6, §7, §8, §9, §10, §11

[3] = target: CDK7/CycH/MAT1 (Homo sapiens (Human), UniProt P50613); conditions: thiol containing (1.2 mM DTT), ATP 3.0 μM
Protocol: as §1, §2, §3, §4, §5, §6, §7, §8, §9, §10, §11

CDK12 wt/CycK, sequence (Q9NYV4 whole entry): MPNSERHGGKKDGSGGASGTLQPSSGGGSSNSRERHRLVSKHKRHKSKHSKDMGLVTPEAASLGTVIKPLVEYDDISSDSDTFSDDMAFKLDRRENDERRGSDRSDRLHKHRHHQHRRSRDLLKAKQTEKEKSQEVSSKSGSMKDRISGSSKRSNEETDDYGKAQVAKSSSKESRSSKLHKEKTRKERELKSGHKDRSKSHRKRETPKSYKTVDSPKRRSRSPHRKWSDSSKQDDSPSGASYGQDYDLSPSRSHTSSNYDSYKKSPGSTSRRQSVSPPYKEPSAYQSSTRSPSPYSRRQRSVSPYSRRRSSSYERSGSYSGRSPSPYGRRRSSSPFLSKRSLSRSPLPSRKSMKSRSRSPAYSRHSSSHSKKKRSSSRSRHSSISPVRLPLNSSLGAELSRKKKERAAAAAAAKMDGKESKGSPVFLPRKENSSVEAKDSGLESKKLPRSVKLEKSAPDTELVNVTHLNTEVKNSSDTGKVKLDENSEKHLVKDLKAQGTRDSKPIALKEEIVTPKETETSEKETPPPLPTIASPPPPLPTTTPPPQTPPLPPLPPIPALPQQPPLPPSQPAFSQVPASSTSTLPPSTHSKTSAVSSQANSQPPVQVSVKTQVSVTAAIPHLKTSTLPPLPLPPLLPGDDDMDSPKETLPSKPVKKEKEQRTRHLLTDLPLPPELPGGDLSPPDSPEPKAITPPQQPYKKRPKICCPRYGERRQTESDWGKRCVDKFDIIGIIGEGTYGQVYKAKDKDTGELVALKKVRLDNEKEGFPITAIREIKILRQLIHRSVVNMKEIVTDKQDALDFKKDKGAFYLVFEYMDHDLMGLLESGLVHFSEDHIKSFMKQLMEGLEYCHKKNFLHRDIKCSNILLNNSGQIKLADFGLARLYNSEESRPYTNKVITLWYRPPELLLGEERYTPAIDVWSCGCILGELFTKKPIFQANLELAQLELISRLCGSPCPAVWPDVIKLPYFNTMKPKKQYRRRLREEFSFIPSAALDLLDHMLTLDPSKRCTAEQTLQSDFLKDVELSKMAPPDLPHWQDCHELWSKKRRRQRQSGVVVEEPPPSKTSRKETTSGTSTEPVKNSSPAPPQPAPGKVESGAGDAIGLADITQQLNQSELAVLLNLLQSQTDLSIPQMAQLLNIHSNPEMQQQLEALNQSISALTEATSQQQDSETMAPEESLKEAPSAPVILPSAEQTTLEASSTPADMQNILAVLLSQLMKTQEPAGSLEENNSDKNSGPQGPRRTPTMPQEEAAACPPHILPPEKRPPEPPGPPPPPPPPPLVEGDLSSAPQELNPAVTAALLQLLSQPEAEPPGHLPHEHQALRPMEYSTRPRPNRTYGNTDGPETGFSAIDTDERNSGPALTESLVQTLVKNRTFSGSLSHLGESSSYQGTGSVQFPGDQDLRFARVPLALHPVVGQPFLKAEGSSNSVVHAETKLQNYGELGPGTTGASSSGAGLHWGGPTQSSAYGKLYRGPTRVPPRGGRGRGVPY
CDK12 wt/CycK, sequence (O75909 whole entry partner): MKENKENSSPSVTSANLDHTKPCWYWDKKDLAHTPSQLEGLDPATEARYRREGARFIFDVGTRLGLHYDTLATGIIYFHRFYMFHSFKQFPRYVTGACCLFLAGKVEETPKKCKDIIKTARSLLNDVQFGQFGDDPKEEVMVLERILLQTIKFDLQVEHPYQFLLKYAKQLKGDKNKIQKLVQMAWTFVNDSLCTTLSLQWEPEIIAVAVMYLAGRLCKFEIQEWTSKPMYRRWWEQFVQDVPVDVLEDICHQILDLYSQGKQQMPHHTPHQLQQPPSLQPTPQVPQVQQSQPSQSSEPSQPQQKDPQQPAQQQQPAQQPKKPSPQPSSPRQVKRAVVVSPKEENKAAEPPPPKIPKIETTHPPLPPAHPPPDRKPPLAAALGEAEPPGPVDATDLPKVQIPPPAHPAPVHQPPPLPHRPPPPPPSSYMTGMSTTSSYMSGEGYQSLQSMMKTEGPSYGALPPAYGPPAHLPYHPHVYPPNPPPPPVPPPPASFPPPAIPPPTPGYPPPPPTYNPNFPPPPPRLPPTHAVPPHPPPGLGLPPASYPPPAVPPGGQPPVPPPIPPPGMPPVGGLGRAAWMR
CDK7/CycH/MAT1, sequence (P50613 whole entry): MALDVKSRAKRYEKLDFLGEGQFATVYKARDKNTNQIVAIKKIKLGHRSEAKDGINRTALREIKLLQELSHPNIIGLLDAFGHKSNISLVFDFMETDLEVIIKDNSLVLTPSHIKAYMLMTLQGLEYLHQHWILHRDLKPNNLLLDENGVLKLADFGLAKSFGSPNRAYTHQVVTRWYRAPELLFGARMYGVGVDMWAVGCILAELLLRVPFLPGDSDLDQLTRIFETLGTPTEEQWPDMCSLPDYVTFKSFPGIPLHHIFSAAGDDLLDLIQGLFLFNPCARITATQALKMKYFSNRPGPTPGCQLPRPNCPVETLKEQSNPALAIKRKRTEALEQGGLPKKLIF
CDK7/CycH/MAT1, sequence (P51946 whole entry partner): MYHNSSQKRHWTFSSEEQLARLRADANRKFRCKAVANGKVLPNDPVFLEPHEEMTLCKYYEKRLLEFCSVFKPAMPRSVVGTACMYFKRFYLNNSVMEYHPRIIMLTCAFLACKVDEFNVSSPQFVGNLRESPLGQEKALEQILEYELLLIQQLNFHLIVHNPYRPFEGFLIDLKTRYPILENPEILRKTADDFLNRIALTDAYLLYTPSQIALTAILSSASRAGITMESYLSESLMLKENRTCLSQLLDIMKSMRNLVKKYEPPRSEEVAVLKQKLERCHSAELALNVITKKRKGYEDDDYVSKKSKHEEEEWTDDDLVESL
CDK7/CycH/MAT1, sequence (P51948 whole entry partner): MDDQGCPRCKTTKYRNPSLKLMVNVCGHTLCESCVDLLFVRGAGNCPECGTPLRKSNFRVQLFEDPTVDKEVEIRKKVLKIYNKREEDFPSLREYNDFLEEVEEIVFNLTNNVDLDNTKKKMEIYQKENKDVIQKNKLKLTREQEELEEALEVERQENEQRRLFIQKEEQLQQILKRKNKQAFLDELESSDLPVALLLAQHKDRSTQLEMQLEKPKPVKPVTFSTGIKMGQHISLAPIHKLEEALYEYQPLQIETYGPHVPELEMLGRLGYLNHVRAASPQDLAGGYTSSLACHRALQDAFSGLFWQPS

SMILES | pIC50 [1] | pIC50 [2] | pIC50 [3]
C=CC(=O)Nc1ccc(C(=O)N2CC[C@@H](Nc3ncc4ccc(C(N)=O)cc4n3)C2)cc1 [Example 39, (R)-2-((1-(4-acrylamidobenzoyl)pyrrolidin-3-yl)amino)quinazoline-7-carboxamide] | ≥ 7.00 | ≥ 7.00 | 6.00 to 7.00
C=CC(=O)Nc1ccc(C(=O)N2CC[C@@H](Nc3ncc4ccc(C(=O)NC)cc4n3)C2)cc1 [Example 40, (R)-2-((1-(4-acrylamidobenzoyl)pyrrolidin-3-yl)amino)-N-methylquinazoline-7-carboxamide] | ≥ 7.00 | ≥ 7.00 | 6.00 to 7.00
C=CC(=O)Nc1ccc(C(=O)N2CC[C@@H](Nc3ncc4ccc(C(=O)N(C)C)cc4n3)C2)cc1 [Example 41, (R)-2-((1-(4-acrylamidobenzoyl)pyrrolidin-3-yl)amino)-N,N-dimethylquinazoline-7-carboxamide] | ≥ 7.00 | 6.00 to 7.00 | 5.00 to 6.00
C=CC(=O)Nc1ccc(C(=O)N2CC[C@@H](Nc3ncc4ccc(=O)[nH]c4n3)C2)cc1 [Example 42, (R)—N-(4-(3-((7-oxo-7,8-dihydropyrido[2,3-d]pyrimidin-2-yl)amino)pyrrolidine-1-carbonyl)phenyl)acrylamide] | ≥ 7.00 | 6.00 to 7.00 | 5.00 to 6.00
CCC(=O)Nc1ccc(C(=O)N2CC[C@@H](Nc3cc4ccccc4cn3)C2)cc1 [Example 45, (R)—N-(4-(3-(isoquinolin-3-ylamino)pyrrolidine-1-carbonyl)phenyl)propionamide] | 6.00 to 7.00 | 5.00 to 6.00 | 5.00 to 6.00
CCC(=O)Nc1ccc(C(=O)N2CC[C@@H](Nc3ncc4cc(F)ccc4n3)C2)cc1 [Example 46, (R)—N-(4-(3-((6-fluoroquinazolin-2-yl)amino)pyrrolidine-1-carbonyl)phenyl)propionamide] | 6.00 to 7.00 | 5.00 to 6.00 | 5.00 to 6.00
CCC(=O)Nc1ccc(C(=O)N2CC[C@@H](Nc3ncc4cc(Cl)ccc4n3)C2)cc1 [Example 47, (R)—N-(4-(3-((6-chloroquinazolin-2-yl)amino)pyrrolidine-1-carbonyl)phenyl)propionamide] | 6.00 to 7.00 | 5.00 to 6.00 | 5.00 to 6.00
CCC(=O)Nc1ccc(C(=O)N2CC[C@@H](Nc3ncc4cc(OC)ccc4n3)C2)cc1 [Example 48, (R)—N-(4-(3-((6-methoxyquinazolin-2-yl)amino)pyrrolidine-1-carbonyl)phenyl)propionamide] | 5.00 to 6.00 | 4.52 to 5.00 | 4.00 to 4.52
CCC(=O)Nc1ccc(C(=O)N2CC[C@@H](Nc3ncc4cc(C)ccc4n3)C2)cc1 [Example 49, (R)—N-(4-(3-((6-methylquinazolin-2-yl)amino)pyrrolidine-1-carbonyl)phenyl)propionamide] | 5.00 to 6.00 | 5.00 to 6.00 | 5.00 to 6.00
CCC(=O)Nc1ccc(C(=O)N2CC[C@@H](Nc3ncc4ccncc4n3)C2)cc1 [Example 50, (R)—N-(4-(3-(pyrido[3,4-d]pyrimidin-2-ylamino)pyrrolidine-1-carbonyl)phenyl)propionamide] | 6.00 to 7.00 | 5.00 to 6.00 | 5.00 to 6.00
CCC(=O)Nc1ccc(C(=O)N2CC[C@@H](Nc3ncc4ccc(OC)cc4n3)C2)cc1 [Example 51, (R)—N-(4-(3-((7-methoxyquinazolin-2-yl)amino)pyrrolidine-1-carbonyl)phenyl)propionamide] | 6.00 to 7.00 | 6.00 to 7.00 | 6.00 to 7.00
CCC(=O)Nc1ccc(C(=O)N2CC[C@@H](Nc3ncc4ccc(S(C)(=O)=O)cc4n3)C2)cc1 [Example 52, (R)—N-(4-(3-((7-(methylsulfonyl)quinazolin-2-yl)amino)pyrrolidine-1-carbonyl)phenyl)propionamide] | 6.00 to 7.00 | 6.00 to 7.00 | 5.00 to 6.00
CCC(=O)Nc1ccc(C(=O)N2CC[C@@H](Nc3ncc4ccc(Cl)cc4n3)C2)cc1 [Example 53, (R)—N-(4-(3-((7-chloroquinazolin-2-yl)amino)pyrrolidine-1-carbonyl)phenyl)propionamide] | 6.00 to 7.00 | 6.00 to 7.00 | 5.00 to 6.00
CCC(=O)Nc1ccc(C(=O)N2CC[C@@H](Nc3ncc4ccc(F)cc4n3)C2)cc1 [Example 54, (R)—N-(4-(3-((7-fluoroquinazolin-2-yl)amino)pyrrolidine-1-carbonyl)phenyl)propionamide] | 6.00 to 7.00 | 5.00 to 6.00 | 5.00 to 6.00
CCC(=O)Nc1ccc(C(=O)N2CC[C@@H](Nc3ncc4ccc(C#N)cc4n3)C2)cc1 [Example 55, (R)—N-(4-(3-((7-cyanoquinazolin-2-yl)amino)pyrrolidine-1-carbonyl)phenyl)propionamide] | 6.00 to 7.00 | 6.00 to 7.00 | 5.00 to 6.00
CCC(=O)Nc1ccc(C(=O)N2CC[C@@H](Nc3ncc4ccc(C(=O)O)cc4n3)C2)cc1 [Example 56, (R)-2-((1-(4-propionamidobenzoyl)pyrrolidin-3-yl)amino)quinazoline-7-carboxylic Acid] | ≥ 7.00 | ≥ 7.00 | 6.00 to 7.00
CCC(=O)Nc1ccc(C(=O)N2CC[C@@H](Nc3ncc4ccc(C(N)=O)cc4n3)C2)cc1 [Example 57, (R)-2-((1-(4-propionamidobenzoyl)pyrrolidin-3-yl)amino)quinazoline-7-carboxamide] | ≥ 7.00 | ≥ 7.00 | ≥ 7.00
CCC(=O)Nc1ccc(C(=O)N2CC[C@@H](Nc3ncc4ccc(C(=O)N(C)C)cc4n3)C2)cc1 [Example 59, (R)—N,N-dimethyl-2-((1-(4-propionamidobenzoyl)pyrrolidin-3-yl)amino)quinazoline-7-carboxamide] | ≥ 7.00 | ≥ 7.00 | 6.00 to 7.00
CCC(=O)Nc1ccc(C(=O)N2CC[C@@H](Nc3ncc4ccc(=O)[nH]c4n3)C2)cc1 [Example 60, (R)—N-(4-(3-((7-oxo-7,8-dihydropyrido[2,3-d]pyrimidin-2-yl)amino)pyrrolidine-1-carbonyl)phenyl)propionamide] | ≥ 7.00 | 5.00 to 6.00 | 5.00 to 6.00
C=CC(=O)Nc1ccc(C(=O)N2C[C@H](Nc3ncc4ccccc4n3)[C@@H](F)C2)cc1 [Example 63, N-(4-((3S,4S)-3-fluoro-4-(quinazolin-2-ylamino)pyrrolidine-1-carbonyl)phenyl)acrylamide] | 6.00 to 7.00 | 4.52 to 5.00 | 5.00 to 6.00
C=CC(=O)Nc1ccc(C(=O)N2CC(Nc3ncc4ccccc4n3)C2)cc1 [Example 64, N-(4-(3-(quinazolin-2-ylamino)azetidine-1-carbonyl)phenyl)acrylamide] | 5.00 to 6.00 | 5.00 to 6.00 | 4.52 to 5.00
CN(C)C/C=C/C(=O)Nc1ccc(C(=O)N2CC[C@@H](Nc3ncc4ccccc4n3)C2)cc1 [Example 65, (R,E)-4-(dimethylamino)-N-(4-(3-(quinazolin-2-ylamino)pyrrolidine-1-carbonyl)phenyl)but-2-enamide] | 6.00 to 7.00 | 6.00 to 7.00 | 6.00 to 7.00
CN(C)C/C=C/C(=O)Nc1ccc(C(=O)N2CCC[C@@H](Nc3ncc4ccccc4n3)C2)cc1 [Example 66, (R,E)-4-(dimethylamino)-N-(4-(3-(quinazolin-2-ylamino)piperidine-1-carbonyl)phenyl)but-2-enamide] | 5.00 to 6.00 | 4.00 to 4.52 | 4.00 to 4.52
C=CC(=O)Nc1c(C)cc(C(=O)N2CC[C@@H](Nc3ncc4ccccc4n3)C2)cc1F [Example 75, (R)—N-(2-fluoro-6-methyl-4-(3-(quinazolin-2-ylamino)pyrrolidine-1-carbonyl)phenyl)acrylamide] | 5.00 to 6.00 | 4.52 to 5.00 | 4.52 to 5.00
